Results as given in publication PMC10009755, “Discovery and Characterization of BAY-805, a Potent and Selective Inhibitor of Ubiquitin-Specific Protease USP21” (Journal of Medicinal Chemistry, 2023).

Tests used:
Adrenergic α2A = target: T1, Adrenergic α2A (Homo sapiens, UniProt P08913); assay: Eurofins Panlabs safety screen; type: binding
T1 construct: Eurofins Panlabs

Dopamine D3 = Dopamine D3 (Homo sapiens, UniProt P35462); assay: Eurofins Panlabs safety screen; type: binding
[1] = target: T2, Serotonin (5-Hydroxytryptamine) 5-HT2C (Homo sapiens, UniProt P28335); assay: Eurofins Panlabs safety screen; type: binding
T2 construct: Eurofins Panlabs

Dopamine D2S = Dopamine D2S (Homo sapiens, UniProt P14416); assay: Eurofins Panlabs safety screen; type: binding
PRP4(h) = target: T3, PRP4(h) (Homo sapiens, UniProt Q13523); assay: Eurofins kinase panel; type: biochemical
T3 construct: purchased Eurofins (formerly Millipore/Upstate) KinaseProfiler

Dopamine D2L = Dopamine D2L (Homo sapiens, UniProt P14416); assay: Eurofins Panlabs safety screen; type: binding
[2] = target: T4, Serotonin (5-Hydroxytryptamine) 5-HT1A (Homo sapiens, UniProt P08908); assay: Eurofins Panlabs safety screen; type: binding
T4 construct: Eurofins Panlabs

Muscarinic M1 = target: T5, Muscarinic M1 (Homo sapiens, UniProt P11229); assay: Eurofins Panlabs safety screen; type: binding
T5 construct: Eurofins Panlabs

[3] = target: T6, Nicotinic Acetylcholine α3β4 (Homo sapiens, UniProt P30926+P32297); assay: Eurofins Panlabs safety screen; type: binding
T6 construct: Eurofins Panlabs

Muscarinic M3 = target: T7, Muscarinic M3 (Homo sapiens, UniProt P20309); assay: Eurofins Panlabs safety screen; type: binding
T7 construct: Eurofins Panlabs

Adrenergic α1A = target: T8, Adrenergic α1A (Homo sapiens, UniProt P35348); assay: Eurofins Panlabs safety screen; type: binding
T8 construct: Eurofins Panlabs

Dopamine D1 = Dopamine D1 (Homo sapiens, UniProt P21728); assay: Eurofins Panlabs safety screen; type: binding
Fms(h) = target: T9, Fms(h) (Homo sapiens, UniProt P07333); assay: Eurofins kinase panel; type: biochemical
T9 construct: purchased Eurofins (formerly Millipore/Upstate) KinaseProfiler

Muscarinic M4 = target: T10, Muscarinic M4 (Homo sapiens, UniProt P08173); assay: Eurofins Panlabs safety screen; type: binding
T10 construct: Eurofins Panlabs

Androgen (Testosterone) = Androgen (Testosterone) (Homo sapiens, UniProt P10275); assay: Eurofins Panlabs safety screen; type: binding
Opiate δ1 (OP1, DOP) = target: T11, Opiate δ1 (OP1, DOP) (Homo sapiens, UniProt P41143); assay: Eurofins Panlabs safety screen; type: binding
T11 construct: Eurofins Panlabs

[4] = target: T12, Cholinesterase, Acetyl, ACES (Homo sapiens, UniProt P22303); assay: Eurofins Panlabs safety screen; type: biochemical
T12 construct: Eurofins Panlabs

Muscarinic M2 = target: T13, Muscarinic M2 (Homo sapiens, UniProt P08172); assay: Eurofins Panlabs safety screen; type: binding
T13 construct: Eurofins Panlabs

[5] = target: T14, Serotonin (5-Hydroxytryptamine) 5-HT2A (Homo sapiens, UniProt P28223); assay: Eurofins Panlabs safety screen; type: binding
T14 construct: Eurofins Panlabs

Cannabinoid CB2 = Cannabinoid CB2 (Homo sapiens, UniProt P34972); assay: Eurofins Panlabs safety screen; type: binding
Cannabinoid CB1 = Cannabinoid CB1 (Homo sapiens, UniProt P21554); assay: Eurofins Panlabs safety screen; type: binding
Adrenergic α2C = target: T15, Adrenergic α2C (Homo sapiens, UniProt P18825); assay: Eurofins Panlabs safety screen; type: binding
T15 construct: Eurofins Panlabs

Adrenergic α2B = target: T16, Adrenergic α2B (Homo sapiens, UniProt P18089); assay: Eurofins Panlabs safety screen; type: binding
T16 construct: Eurofins Panlabs

Opiate μ (OP3, MOP) = target: T17, Opiate μ (OP3, MOP) (Homo sapiens, UniProt P35372); assay: Eurofins Panlabs safety screen; type: binding
T17 construct: Eurofins Panlabs

[6] = target: T18, Serotonin (5-Hydroxytryptamine) 5-HT2B (Homo sapiens, UniProt P41595); assay: Eurofins Panlabs safety screen; type: binding
T18 construct: Eurofins Panlabs
T18 sequence (P41595 whole entry): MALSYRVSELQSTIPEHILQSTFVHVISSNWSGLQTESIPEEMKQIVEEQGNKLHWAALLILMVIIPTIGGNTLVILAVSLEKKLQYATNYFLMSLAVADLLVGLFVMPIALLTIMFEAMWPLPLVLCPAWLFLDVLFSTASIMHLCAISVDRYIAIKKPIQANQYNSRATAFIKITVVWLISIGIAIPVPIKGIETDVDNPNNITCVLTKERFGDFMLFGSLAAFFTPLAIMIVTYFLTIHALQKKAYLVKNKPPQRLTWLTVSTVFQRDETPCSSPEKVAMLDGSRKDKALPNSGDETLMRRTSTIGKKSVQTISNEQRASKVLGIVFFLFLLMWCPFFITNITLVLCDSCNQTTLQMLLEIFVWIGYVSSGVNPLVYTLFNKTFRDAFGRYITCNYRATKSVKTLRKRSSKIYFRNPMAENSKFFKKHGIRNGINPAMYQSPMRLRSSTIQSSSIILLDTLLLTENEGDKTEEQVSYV

T12 sequence (P22303 32-614): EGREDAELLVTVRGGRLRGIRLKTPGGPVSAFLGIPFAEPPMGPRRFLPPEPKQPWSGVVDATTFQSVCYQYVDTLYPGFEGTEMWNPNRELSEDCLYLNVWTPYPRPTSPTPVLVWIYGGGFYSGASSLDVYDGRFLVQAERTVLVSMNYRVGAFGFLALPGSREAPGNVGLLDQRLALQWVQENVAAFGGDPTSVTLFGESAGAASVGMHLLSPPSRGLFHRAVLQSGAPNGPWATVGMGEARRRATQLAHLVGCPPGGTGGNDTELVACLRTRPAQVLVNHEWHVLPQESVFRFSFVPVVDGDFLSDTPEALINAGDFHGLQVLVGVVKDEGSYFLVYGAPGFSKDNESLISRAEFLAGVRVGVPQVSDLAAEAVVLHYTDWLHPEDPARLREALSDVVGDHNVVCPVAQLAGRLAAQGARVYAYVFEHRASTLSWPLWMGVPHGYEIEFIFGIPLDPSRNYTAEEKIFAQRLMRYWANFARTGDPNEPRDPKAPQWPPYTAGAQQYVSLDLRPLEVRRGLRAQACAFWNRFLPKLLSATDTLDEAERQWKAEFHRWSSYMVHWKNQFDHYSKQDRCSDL
T16 sequence (P18089 whole entry): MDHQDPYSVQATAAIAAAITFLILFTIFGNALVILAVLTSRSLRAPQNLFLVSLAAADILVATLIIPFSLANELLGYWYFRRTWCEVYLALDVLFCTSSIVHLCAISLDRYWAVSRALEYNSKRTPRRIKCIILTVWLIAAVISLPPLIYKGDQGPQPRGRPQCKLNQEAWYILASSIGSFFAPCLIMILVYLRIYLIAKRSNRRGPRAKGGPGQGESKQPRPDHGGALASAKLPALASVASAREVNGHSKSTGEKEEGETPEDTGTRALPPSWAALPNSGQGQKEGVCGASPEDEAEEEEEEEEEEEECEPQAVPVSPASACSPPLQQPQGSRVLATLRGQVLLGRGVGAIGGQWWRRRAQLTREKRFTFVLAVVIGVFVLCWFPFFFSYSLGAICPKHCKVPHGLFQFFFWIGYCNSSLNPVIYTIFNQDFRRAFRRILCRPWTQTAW
T4 sequence (P08908 whole entry): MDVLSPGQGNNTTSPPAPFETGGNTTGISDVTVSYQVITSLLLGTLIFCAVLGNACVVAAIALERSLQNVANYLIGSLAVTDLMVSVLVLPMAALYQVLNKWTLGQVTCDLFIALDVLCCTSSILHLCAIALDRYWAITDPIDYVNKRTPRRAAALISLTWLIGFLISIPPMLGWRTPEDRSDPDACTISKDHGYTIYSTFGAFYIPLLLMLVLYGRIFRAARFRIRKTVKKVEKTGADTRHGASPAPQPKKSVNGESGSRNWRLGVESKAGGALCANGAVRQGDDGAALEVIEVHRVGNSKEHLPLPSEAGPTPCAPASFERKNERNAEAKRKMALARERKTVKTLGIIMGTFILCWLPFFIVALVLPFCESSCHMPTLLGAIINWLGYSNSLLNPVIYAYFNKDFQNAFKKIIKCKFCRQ
T10 sequence (P08173 whole entry): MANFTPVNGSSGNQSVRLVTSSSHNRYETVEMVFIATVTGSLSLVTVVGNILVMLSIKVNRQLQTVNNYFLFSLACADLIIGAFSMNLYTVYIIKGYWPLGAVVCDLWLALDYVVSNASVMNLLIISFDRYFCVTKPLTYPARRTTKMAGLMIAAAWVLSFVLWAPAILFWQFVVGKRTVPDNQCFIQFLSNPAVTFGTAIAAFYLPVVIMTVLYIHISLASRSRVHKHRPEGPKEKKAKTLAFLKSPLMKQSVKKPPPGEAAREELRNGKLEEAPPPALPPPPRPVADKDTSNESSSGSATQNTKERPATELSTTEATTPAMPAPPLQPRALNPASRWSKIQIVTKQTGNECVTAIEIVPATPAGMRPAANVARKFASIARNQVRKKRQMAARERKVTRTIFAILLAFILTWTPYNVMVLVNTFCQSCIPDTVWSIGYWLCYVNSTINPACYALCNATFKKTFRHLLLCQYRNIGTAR
Chain of Dopamine D3 (P35462 whole entry): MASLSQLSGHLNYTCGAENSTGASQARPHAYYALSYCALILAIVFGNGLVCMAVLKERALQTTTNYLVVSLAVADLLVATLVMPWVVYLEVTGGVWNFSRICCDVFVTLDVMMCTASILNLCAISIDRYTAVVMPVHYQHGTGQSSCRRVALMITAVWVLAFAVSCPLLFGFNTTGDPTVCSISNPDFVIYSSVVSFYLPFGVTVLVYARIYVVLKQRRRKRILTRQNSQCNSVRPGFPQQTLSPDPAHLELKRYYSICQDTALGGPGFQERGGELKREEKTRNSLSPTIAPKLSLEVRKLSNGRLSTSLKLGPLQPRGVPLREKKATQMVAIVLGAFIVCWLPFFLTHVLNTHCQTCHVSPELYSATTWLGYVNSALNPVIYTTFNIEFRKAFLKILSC
Chain of Cannabinoid CB2 (P34972 whole entry): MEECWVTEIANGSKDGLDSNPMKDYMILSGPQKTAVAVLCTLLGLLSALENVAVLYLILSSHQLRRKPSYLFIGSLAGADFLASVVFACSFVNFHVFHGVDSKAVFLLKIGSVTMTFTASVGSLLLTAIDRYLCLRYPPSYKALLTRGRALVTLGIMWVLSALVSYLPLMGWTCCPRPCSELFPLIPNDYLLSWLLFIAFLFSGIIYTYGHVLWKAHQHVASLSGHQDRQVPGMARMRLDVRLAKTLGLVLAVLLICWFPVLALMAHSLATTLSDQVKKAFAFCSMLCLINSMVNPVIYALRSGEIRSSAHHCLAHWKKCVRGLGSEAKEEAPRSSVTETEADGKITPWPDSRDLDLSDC
T5 sequence (P11229 whole entry): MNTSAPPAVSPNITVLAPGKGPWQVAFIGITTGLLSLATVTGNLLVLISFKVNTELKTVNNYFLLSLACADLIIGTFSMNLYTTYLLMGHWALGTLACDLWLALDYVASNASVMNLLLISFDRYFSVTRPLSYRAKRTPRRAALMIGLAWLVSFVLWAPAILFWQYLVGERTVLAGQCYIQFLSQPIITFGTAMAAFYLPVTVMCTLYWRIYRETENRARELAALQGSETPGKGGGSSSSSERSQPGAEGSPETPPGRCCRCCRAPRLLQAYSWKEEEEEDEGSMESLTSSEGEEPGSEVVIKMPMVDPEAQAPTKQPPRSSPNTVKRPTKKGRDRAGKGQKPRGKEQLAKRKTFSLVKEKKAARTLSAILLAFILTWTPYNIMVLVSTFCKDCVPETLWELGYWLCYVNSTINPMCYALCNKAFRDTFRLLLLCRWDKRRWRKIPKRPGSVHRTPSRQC
Chain of Dopamine D1 (P21728 whole entry): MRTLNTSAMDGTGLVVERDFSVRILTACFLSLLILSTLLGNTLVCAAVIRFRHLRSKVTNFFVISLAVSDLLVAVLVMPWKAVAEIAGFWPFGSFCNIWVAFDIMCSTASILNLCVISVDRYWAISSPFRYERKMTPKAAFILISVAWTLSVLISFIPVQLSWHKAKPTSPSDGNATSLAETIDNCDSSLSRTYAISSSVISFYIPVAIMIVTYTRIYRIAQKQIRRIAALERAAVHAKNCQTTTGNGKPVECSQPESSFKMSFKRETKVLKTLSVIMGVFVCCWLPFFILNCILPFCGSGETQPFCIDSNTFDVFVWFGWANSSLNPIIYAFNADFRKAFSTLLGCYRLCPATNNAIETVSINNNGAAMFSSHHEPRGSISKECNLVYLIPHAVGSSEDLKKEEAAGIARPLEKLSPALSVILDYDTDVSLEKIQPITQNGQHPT
T15 sequence (P18825 whole entry): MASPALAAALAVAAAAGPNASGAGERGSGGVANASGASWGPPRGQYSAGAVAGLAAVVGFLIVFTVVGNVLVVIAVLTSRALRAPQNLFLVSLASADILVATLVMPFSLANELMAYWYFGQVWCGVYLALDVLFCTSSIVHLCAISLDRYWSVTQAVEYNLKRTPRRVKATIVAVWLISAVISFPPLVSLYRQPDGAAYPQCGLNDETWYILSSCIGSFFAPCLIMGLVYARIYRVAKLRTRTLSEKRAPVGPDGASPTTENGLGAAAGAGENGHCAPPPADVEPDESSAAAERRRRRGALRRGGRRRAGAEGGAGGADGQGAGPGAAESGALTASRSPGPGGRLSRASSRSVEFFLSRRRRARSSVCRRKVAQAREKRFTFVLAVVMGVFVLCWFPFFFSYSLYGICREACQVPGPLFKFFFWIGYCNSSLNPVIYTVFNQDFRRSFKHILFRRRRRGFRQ
Chain of Dopamine D2S (P14416 1-414 isoform P14416-2): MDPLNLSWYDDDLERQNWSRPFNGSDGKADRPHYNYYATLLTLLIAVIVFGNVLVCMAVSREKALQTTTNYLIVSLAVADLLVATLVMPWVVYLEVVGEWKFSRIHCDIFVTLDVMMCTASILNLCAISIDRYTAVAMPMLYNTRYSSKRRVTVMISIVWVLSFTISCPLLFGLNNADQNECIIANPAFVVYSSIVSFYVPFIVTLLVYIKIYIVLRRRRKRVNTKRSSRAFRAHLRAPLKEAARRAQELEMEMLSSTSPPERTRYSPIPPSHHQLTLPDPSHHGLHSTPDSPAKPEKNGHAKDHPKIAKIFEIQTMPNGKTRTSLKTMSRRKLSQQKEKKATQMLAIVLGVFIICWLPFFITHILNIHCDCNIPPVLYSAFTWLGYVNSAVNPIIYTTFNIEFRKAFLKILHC

Question: Which results are given for `CC(C)C[C@@H](NC(=O)C1(C(F)(F)F)CCCCC1)C(=O)Nc1nnc(Cc2ccc(C#N)cc2)s1` [Compound 21, N-[(1R)-1-[[5-[(4-Cyanophenyl)methyl]-1,3,4-thiadiazol-2-yl]carbamoyl]-3-methyl-butyl]-1-(trifluoromethyl)cyclohexanecarboxamide]?
Answer: inhibition at 10 µM (Adrenergic α2A): 14%; inhibition at 10 µM (Dopamine D3): 9%; inhibition at 10 µM [1]: -5%; inhibition at 10 µM (Dopamine D2S): 24%; inhibition at 10 µM (PRP4(h)): 8.18%; inhibition at 10 µM (Dopamine D2L): 8%; inhibition at 10 µM [2]: 2%; inhibition at 10 µM (Muscarinic M1): 18%; inhibition at 10 µM [3]: -3%; inhibition at 10 µM (Muscarinic M3): 7%; inhibition at 10 µM (Adrenergic α1A): 1%; inhibition at 10 µM (Dopamine D1): -3%; inhibition at 10 µM (Fms(h)): 3.41%; inhibition at 10 µM (Muscarinic M4): -4%; inhibition at 10 µM (Androgen (Testosterone)): 4%; inhibition at 10 µM (Opiate δ1 (OP1, DOP)): -5%; IC50 [4]: 7.61 µM; inhibition at 10 µM [4]: 72%; inhibition at 0.1 µM ([4]; IC50 determination, 0.1 µM): 15%; inhibition at 0.3 µM ([4]; IC50 determination, 0.3 µM): 16%; inhibition at 1 µM ([4]; IC50 determination, 1 µM): 11%; inhibition at 3 µM ([4]; IC50 determination, 3 µM): 4%; inhibition at 10 µM ([4]; IC50 determination): 74%; inhibition at 30 µM ([4]; IC50 determination, 30 µM): 74%; inhibition at 10 µM (Muscarinic M2): 2%; inhibition at 10 µM [5]: 4%; inhibition at 10 µM (Cannabinoid CB2): 1%; inhibition at 10 µM (Cannabinoid CB1): 8%; inhibition at 10 µM (Adrenergic α2C): 6%; inhibition at 10 µM (Adrenergic α2B): 4%; inhibition at 10 µM (Opiate μ (OP3, MOP)): -1%; inhibition at 10 µM [6]: 3%
